The record followed here is ChEMBL document CHEMBL1641443, “Design, synthesis and biological evaluation of small molecule inhibitors of CD4-gp120 binding based on virtual screening” (Bioorg Med Chem, 2011).

SMILES strings stand for the structures.

For this assay, the system named is Human immunodeficiency virus 1. The experiment in a line: Antiviral activity against recombinant HIV1 YU2 in Cf2Th-CCR5 cells assessed as viral infectivity by luciferase assasy relative to JRC-II-191. Also: test concentration or dose not given here. Type of assay: functional, isolate YU2.
For the compound `NC(=O)C1CCN(CCC(=O)Nc2ccc(Br)cc2)CC1`, the “fold change (FC)” value was 0.

`CC1(C)CC(=O)c2cc(C(=O)Nc3ccc(Cl)cc3)c(=O)[nH]c2C1`: the “fold change (FC)” value came to 0.

Turning to `CCN=C(S)N1CCN(CC(=O)Nc2ccc(Br)cc2)CC1`, the “fold change (FC)” value is 0.

As for `Nc1ccc(C(=O)CC(=O)Nc2ccc(Cl)cc2)cc1`, the “fold change (FC)” value stood at 0.

As to `N=c1oc2cc(O)ccc2cc1C(=O)Nc1ccc(Cl)cc1`, the “fold change (FC)” value is listed as 0.

As to `O=C(CN1CCCCCC1)Nc1ccc(Br)cc1`, the “fold change (FC)” value was 0.

As to `CC1CCCN(CCC(=O)Nc2ccc(Br)cc2)C1` (centres undefined), the “fold change (FC)” value amounted to 0.

`Cc1ccc(N(C)C)cc1NC(=O)COc1ccc(Cl)cc1`: the “fold change (FC)” value worked out at 0.

`CC(NC(=O)C(=O)Nc1ccc(Cl)c(F)c1)c1ccc2c(c1)NC(=O)CO2` (centres undefined): the “fold change (FC)” value is reported as 0.

With `CCN1CCCC1CNC(=O)C(=O)Nc1ccc(Cl)cc1` (centres undefined), the “fold change (FC)” value worked out at 0.

For the compound `O=C(Nc1ccc(Cl)c(F)c1)C(=O)N[C@H]1CCN(Cc2ccccc2)C1`, the “fold change (FC)” value was 0.

Take `O=C(NCC1CCN(C2CC2)C1)C(=O)Nc1ccc(Cl)c(F)c1` (centres undefined): the “fold change (FC)” value was 0.3.

For the compound `O=C(Nc1ccc(Cl)c(F)c1)C(=O)NC1CCN(C2CCCCC2)C1` (centres undefined), the “fold change (FC)” value was 0.48.

Regarding `O=C(NCC1CCN(CCN2CCOCC2)C1)C(=O)Nc1ccc(Cl)c(F)c1` (centres undefined), the “fold change (FC)” value was 0.1.

On to `O=C(NC[C@@H]1CCCN2CCCC[C@H]12)C(=O)Nc1ccc(Cl)c(F)c1`, for which the “fold change (FC)” value worked out at 0.

In the case of `CC(C)(C)c1cc(CNC(=O)C(=O)Nc2ccc(Cl)c(F)c2)n[nH]1`, the “fold change (FC)” value turned out to be 0.1.

For the compound `CC1(C)CC(NC(=O)C(=O)Nc2ccc(Cl)cc2F)CC(C)(C)N1`, the “fold change (FC)” value was 0.

For the compound `CC1(C)CC(NC(=O)C(=O)Nc2ccc(Cl)cc2Cl)CC(C)(C)N1`, the “fold change (FC)” value stood at 0.

On to `Cc1cc(Cl)ccc1NC(=O)C(=O)NC1CC(C)(C)NC(C)(C)C1`, for which the “fold change (FC)” value is on record as 0.

As for `CC1(C)CC(NC(=O)C(=O)Nc2ccc(Cl)cc2C(F)(F)F)CC(C)(C)N1`, the “fold change (FC)” value was 0.

In the case of `COc1cc(Cl)ccc1NC(=O)C(=O)NC1CC(C)(C)NC(C)(C)C1`, the “fold change (FC)” value was 0.

Regarding `CCOc1cc(Cl)ccc1NC(=O)C(=O)NC1CC(C)(C)NC(C)(C)C1`, the “fold change (FC)” value is given as 0.

Consider `CC1(C)CC(NC(=O)C(=O)Nc2ccc(Cl)cc2OCc2ccccc2)CC(C)(C)N1`, for which the “fold change (FC)” value came to 0.

In the case of `CC1(C)Cc2c(sc(NC(=O)C(=O)Nc3ccc(Cl)c(F)c3)c2C#N)C(C)(C)N1`, the “fold change (FC)” value came to 0.

As for `Nc1ncc(CNC(=O)C(=O)Nc2ccc(Cl)c(F)c2)cn1`, the “fold change (FC)” value is listed as 0.

Take `CNS(=O)(=O)Cc1ccc(CNC(=O)C(=O)Nc2ccc(Cl)c(F)c2)cc1`: the “fold change (FC)” value worked out at 0.

As for `CC(NC(=O)C(=O)Nc1ccc(Cl)c(F)c1)c1ccc(S(N)(=O)=O)cc1` (centres undefined), the “fold change (FC)” value was determined as 0.

In the case of `CCN(CC)C(CNC(=O)C(=O)Nc1ccc(Cl)c(F)c1)CC(C)C` (centres undefined), the “fold change (FC)” value stood at 0.

Take `CN(C)C(CNC(=O)C(=O)Nc1ccc(Cl)c(F)c1)c1ccco1` (centres undefined): the “fold change (FC)” value stood at 0.

With `CN(C)C(CNC(=O)C(=O)Nc1ccc(Cl)c(F)c1)N1CCCC1` (centres undefined), the “fold change (FC)” value is 0.

`O=C(NCC(c1ccco1)N1CCCC1)C(=O)Nc1ccc(Cl)c(F)c1` (centres undefined): the “fold change (FC)” value is reported as 0.

As to `O=C(NCC(c1ccc(Cl)cc1)N1CCCC1)C(=O)Nc1ccc(Cl)c(F)c1` (centres undefined), the “fold change (FC)” value amounted to 0.4.

As for `CN1CCN(C(CNC(=O)C(=O)Nc2ccc(Cl)c(F)c2)c2cccs2)CC1` (centres undefined), the “fold change (FC)” value was found to be 0.

Regarding `CN1CCN(C(CNC(=O)C(=O)Nc2ccc(Cl)c(F)c2)c2ccccc2Cl)CC1` (centres undefined), the “fold change (FC)” value worked out at 0.11.

Consider `CC(NC(=O)C(=O)Nc1ccc(Cl)c(F)c1)C(c1ccccc1Cl)N1CCOCC1` (centres undefined), for which the “fold change (FC)” value worked out at 0.

`O=C(NCc1ccccc1CN1CCOCC1)C(=O)Nc1ccc(Cl)c(F)c1`: the “fold change (FC)” value came to 0.5.

Take `COc1cc(NC(=O)C(=O)NC2CC(C)(C)NC(C)(C)C2)ccc1Cl`: the “fold change (FC)” value amounted to 0.

As to `CC(C)Oc1cc(NC(=O)C(=O)NC2CC(C)(C)NC(C)(C)C2)ccc1Cl`, the “fold change (FC)” value is on record as 0.

`CC1(C)CC(NC(=O)C(=O)Nc2ccc(Cl)c(OCc3ccccc3)c2)CC(C)(C)N1`: the “fold change (FC)” value worked out at 0.

On to `CC1(C)CC(NC(=O)C(=O)Nc2cccc(OCc3ccccc3)c2)CC(C)(C)N1`, for which the “fold change (FC)” value was 0.

Consider `CC(C)COc1cc(Cl)ccc1NC(=O)C(=O)NC1CC(C)(C)NC(C)(C)C1`, for which the “fold change (FC)” value stood at 0.

Consider `CC1(C)CC(NC(=O)C(=O)Nc2ccc(N=[N+]=[N-])cc2)CC(C)(C)N1`, for which the “fold change (FC)” value amounted to 0.

In the case of `CC(C)c1ccccc1NC(=O)C(=O)NC1CC(C)(C)NC(C)(C)C1`, the “fold change (FC)” value amounted to 0.

For `CC(C)c1cccc(NC(=O)C(=O)NC2CC(C)(C)NC(C)(C)C2)c1`, the “fold change (FC)” value was 0.

As to `CC1(C)CC(NC(=O)C(=O)Nc2c[nH]c3ncccc23)CC(C)(C)N1`, the “fold change (FC)” value came to 0.

For `CC1(C)CC(NC(=O)C(=O)Nc2ccc3ccccc3c2)CC(C)(C)N1`, the “fold change (FC)” value turned out to be 0.

As for `CC1(C)CC(NC(=O)C(=O)Nc2ccc(-n3cc(CCc4ccccc4)nn3)cc2)CC(C)(C)N1`, the “fold change (FC)” value is given as 0.

On to `CC1(C)CC(NC(=O)C(=O)Nc2ccc(-n3cc(-c4ccccc4)nn3)cc2)CC(C)(C)N1`, for which the “fold change (FC)” value is 0.

Consider `CC1(C)CC(NC(=O)C(=O)Nc2ccc(-n3cc(CCCCCO)nn3)cc2)CC(C)(C)N1`, for which the “fold change (FC)” value was 0.

Take `O=C(COc1ccc(Cl)cc1)Nc1cc(=O)[nH]c(=O)[nH]1`: the “fold change (FC)” value came to 0.

On to `Cc1cc(SCC(=O)Nc2ccc(Cl)cc2)nc(=O)[nH]1`, for which the “fold change (FC)” value worked out at 0.

Take `O=C(Nc1ccc(Cl)cc1)c1cc2c([nH]c1=O)CCCC2`: the “fold change (FC)” value is given as 0.

Turning to `O=C(Nc1ccc(Cl)cc1)Nc1ncnc2[nH]cnc12`, the “fold change (FC)” value was 0.

Take `O=C(Nc1cc[nH]c(=O)n1)c1sc2cc(Cl)ccc2c1Cl`: the “fold change (FC)” value was 0.

`O=C(Nc1ccc2c(c1)C(=O)NC2=O)c1ccc(Cl)c(Cl)c1`: the “fold change (FC)” value was determined as 0.

Consider `C[C@@H](Sc1nc(=O)cc(N)[nH]1)C(=O)Nc1ccc(Cl)cc1`, for which the “fold change (FC)” value is 0.

On to `O=C(COc1ccc(Cl)cc1)Nc1ccc2[nH]c(=O)[nH]c2c1`, for which the “fold change (FC)” value is listed as 0.

Consider `O=C(CSc1nc(=O)[nH]c2c1CCCC2)Nc1ccc(Cl)cc1`, for which the “fold change (FC)” value was determined as 0.

With `CN1CCC(NC(=O)Nc2ccc(Cl)cc2Cl)CC1`, the “fold change (FC)” value was found to be 0.

Take `CN1CCCN(C(=O)COc2ccc(Cl)cc2)CC1`: the “fold change (FC)” value turned out to be 0.

Take `Cc1cccc(-c2cc(C(=O)Nc3ccc(Cl)cc3)n[nH]2)c1O`: the “fold change (FC)” value stood at 0.

For the compound `O=C(Nc1ccc(Cl)cc1)c1cc(-n2cnnc2)[nH]n1`, the “fold change (FC)” value was 0.

`CC1(C)OC(=O)N(CCC(=O)Nc2ccc(Cl)cc2)[C@@]1(C)O`: the “fold change (FC)” value was 0.

As for `Cc1cc(OCC(=O)NCc2nc[nH]n2)ccc1Cl`, the “fold change (FC)” value was 0.

Take `O=C(NCCc1cnc[nH]1)Nc1ccc(Cl)c(Cl)c1`: the “fold change (FC)” value was 0.

Take `CC1(C)NC(=O)N(C[C@H](O)COc2ccc(Cl)cc2)C1=O`: the “fold change (FC)” value turned out to be 0.

As for `O=C(COC(=O)c1n[nH]c2ccccc12)Nc1ccc(Cl)cn1`, the “fold change (FC)” value turned out to be 0.

Take `C[C@H](Sc1nc(N)cc(N)n1)C(=O)Nc1ccc(Cl)cc1`: the “fold change (FC)” value was 0.

With `CC1(C)CC(NC(=O)C(=O)Nc2ccc3cc[nH]c3c2)CC(C)(C)N1`, the “fold change (FC)” value worked out at 0.

Take `CC1Sc2cc(C(=O)NC3CC(C)(C)NC(C)(C)C3)ccc2NC1=O` (centres undefined): the “fold change (FC)” value is recorded as 0.

Regarding `CC1(C)CC(=NNC(=O)c2n[nH]c3c2CCCC3)CC(C)(C)N1`, the “fold change (FC)” value is given as 0.

Regarding `O=C(NCc1ccco1)C(=O)Nc1ccc(Br)cc1`, the “fold change (FC)” value stood at 0.

On to `CC1(C)CC(NC(=O)C(=O)NCCc2ccc(Cl)cc2)CC(C)(C)N1`, for which the “fold change (FC)” value is 0.

In the case of `O=C(Nc1ccc(Br)cc1)c1cc(CN2CCCC2)on1`, the “fold change (FC)” value was 0.

Take `O=C(NCC1COc2ccccc2O1)C(=O)Nc1ccc(Br)cc1` (centres undefined): the “fold change (FC)” value is 0.

Regarding `Cc1nn(C)cc1CN(C)CC(=O)Nc1ccc(Br)cc1`, the “fold change (FC)” value turned out to be 0.

For `COc1cccc(N[C@@H](C)C(=O)Nc2ccc(Br)cc2)c1`, the “fold change (FC)” value came out at 0.

For `O=C(NCc1ccc2c(c1)OCO2)C(=O)Nc1ccc(Br)cc1`, the “fold change (FC)” value was found to be 0.

`COc1cccc(NC(=O)C(=O)Nc2ccc(Cl)cc2)c1`: the “fold change (FC)” value is listed as 0.

As for `O=C(CSCc1cc(O)[nH]n1)Nc1ccc(Br)cc1`, the “fold change (FC)” value is recorded as 0.

As for `CCN1CCCC1CNC(=O)C(=O)Nc1c(C(=O)OC)sc(C)c1C` (centres undefined), the “fold change (FC)” value turned out to be 0.

With `O=C(Nc1ccc(Br)cc1)C(=O)Nc1cccc2ccccc12`, the “fold change (FC)” value is recorded as 0.

Turning to `O=C(NCC1OCCc2ccccc21)C(=O)Nc1ccc(Br)cc1` (centres undefined), the “fold change (FC)” value came to 0.

As for `CC(CC(=O)Nc1ccc(Br)cc1)Nc1cccc(CO)c1` (centres undefined), the “fold change (FC)” value was determined as 0.

For the compound `COc1cccc(CNC(=O)C(=O)Nc2ccc(Cl)cc2)c1`, the “fold change (FC)” value turned out to be 0.

In the case of `O=C(NC[C@@H]1COC2(CCCC2)O1)C(=O)Nc1ccc(Cl)cc1`, the “fold change (FC)” value is on record as 0.

In the case of `CC(C)C1CCN(CCC(=O)Nc2ccc(Br)cc2)CC1`, the “fold change (FC)” value came to 0.

Consider `Cc1cc(NC(=O)C(=O)c2c[nH]c3ccccc23)ccc1Br`, for which the “fold change (FC)” value came out at 0.

`C[C@@H]1CN(CCC(=O)Nc2ccc(Br)cc2)C[C@H](C)O1`: the “fold change (FC)” value is listed as 0.

Regarding `CCOC(=O)[C@H]1CCCN(CCC(=O)Nc2ccc(Br)cc2)C1`, the “fold change (FC)” value stood at 0.

In the case of `C[C@H]1CCCN(CCC(=O)Nc2ccc(Cl)cc2)C1`, the “fold change (FC)” value is listed as 0.

With `Cc1ccc(C(C)C)c(OCC(=O)NNC(=O)Nc2ccc(Cl)cc2)c1`, the “fold change (FC)” value was 0.

For `CC1(C)CC(NC(=O)C(=O)Nc2ccc(Cl)cc2)CC(C)(C)N1`, the “fold change (FC)” value worked out at 1.

For `O=C(Nc1ccc(Cl)cc1)C(=O)c1c[nH]c2ccccc12`, the “fold change (FC)” value was determined as 0.
